Measured values: patent US10813930B2, “Substituted imidazopyridazines and benzimidazoles as inhibitors of FGFR3” (Incyte Corporation, priority 2010, dated 2020)
pIC50: −log10 of the molar value.

The molecules below were run against FGFR3 enzyme (Millipore) (Homo sapiens (Human), UniProt P22607) (assay: FGFR3 Enzymatic Assay (peptide phosphorylation, FRET/HTRF)). Conditions: 140 μM ATP, 25° C. 1 hr.
Assay type: biochemical
Protocol: FGFR3 Enzymatic Assay The inhibitor potency of compounds of the invention was measured in an enzyme assay that measures peptide phosphorylation using FRET measurements to detect product formation. Inhibitors were serially diluted in DMSO and a volume of 0.5 μL was transferred to the wells of a 384-well plate. A 10 μL volume of FGFR3 enzyme (Millipore) diluted in assay buffer (50 mM HEPES, 10 mM MgCl2, 1 mM EGTA, 0.01% Tween-20, 5 mM DTT, pH 7.5) was added to the plate and pre-incubated for 5-10 minutes. Appropriate controls (enzyme blank and enzyme with no inhibitor) were included on the plate. […] The plate was incubated at 25° C. for 1 hr. […] The plate was allowed to equilibrate for ˜1 hr before scanning the wells on a PheraStar plate reader.
GraphPad prism3 was used to analyze the data. The IC50 values were derived by fitting the data to the equation for a sigmoidal dose-response with a variable slope. Y=Bottom+(Top-Bottom)/(1+10^(Log IC50−X)*HillSlope)) where X is the logarithm of concentration and Y is the response.

Chain of FGFR3 enzyme (Millipore) (P22607 23-806): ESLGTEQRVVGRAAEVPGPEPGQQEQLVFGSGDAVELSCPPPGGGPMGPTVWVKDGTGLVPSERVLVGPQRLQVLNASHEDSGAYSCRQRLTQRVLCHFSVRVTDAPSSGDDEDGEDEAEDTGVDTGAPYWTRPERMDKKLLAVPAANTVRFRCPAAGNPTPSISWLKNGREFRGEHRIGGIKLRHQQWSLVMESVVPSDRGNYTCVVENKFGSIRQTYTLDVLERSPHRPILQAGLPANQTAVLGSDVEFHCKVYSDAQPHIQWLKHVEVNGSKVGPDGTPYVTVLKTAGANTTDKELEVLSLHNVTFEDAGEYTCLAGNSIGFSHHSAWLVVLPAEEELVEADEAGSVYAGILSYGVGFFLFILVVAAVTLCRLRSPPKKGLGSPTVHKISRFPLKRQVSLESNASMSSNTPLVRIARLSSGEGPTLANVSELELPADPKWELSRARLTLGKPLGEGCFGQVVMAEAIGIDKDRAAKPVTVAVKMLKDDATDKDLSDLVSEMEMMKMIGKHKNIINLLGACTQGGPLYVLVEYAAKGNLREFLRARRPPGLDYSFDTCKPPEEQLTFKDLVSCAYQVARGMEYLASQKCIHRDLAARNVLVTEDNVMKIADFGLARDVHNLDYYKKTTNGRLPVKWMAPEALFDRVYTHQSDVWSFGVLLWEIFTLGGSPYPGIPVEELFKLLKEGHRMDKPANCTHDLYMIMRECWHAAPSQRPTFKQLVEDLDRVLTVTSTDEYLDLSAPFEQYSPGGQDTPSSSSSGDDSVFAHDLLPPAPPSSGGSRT

pIC50, > 8.00:
N#CCC1(n2cc(-c3cnn4c(-c5cccc(NC(=O)NCC(F)(F)F)c5)cnc4c3)cn2)CN(C(=O)N2CCCC2)C1 [Example 86, N-[3-(7-{1-[3-(Cyanomethyl)-1-(pyrrolidin-1-ylcarbonyl)azetidin-3-yl]-1H-pyrazol-4-yl}imidazo[1,2-b]pyridazin-3-yl)phenyl]-N′-(2,2,2-trifluoroethyl)u rea]
CC(C(=O)N1CCC(F)(F)C1)n1cc(-c2cnn3c(-c4cccc(NC(=O)NCC(F)(F)F)c4)cnc3c2)cn1 (stereo not shown) [Example 65, N-[3-(7-{1-[2-(3,3-Difluoropyrrolidin-1-yl)-1-methyl-2-oxoethyl]-1H-pyrazol-4-yl}imidazo[1,2-b]pyridazin-3-yl)phenyl]-N′-(2,2,2-trifluoroethyl)urea]
CC(O)CNC(=O)C(C)n1cc(-c2cnn3c(-c4cccc(NC(=O)NCC(F)(F)F)c4)cnc3c2)cn1 (stereo not shown) [Example 63, N-(2-Hydroxypropyl)-2-(4-{3-[3-({[(2,2,2-trifluoroethyl)amino]carbonyl}amino)phenyl]imidazo[1,2-b]pyridazin-7-yl}-1H-pyrazol-1-yl)propanamide]
N#CCC1(n2cc(-c3cnn4c(-c5cccc(NC(=O)NCC(F)(F)F)c5)cnc4c3)cn2)CN(C(=O)NCC2CC2)C1 [Example 87, 3-(Cyanomethyl)-N-(cyclopropylmethyl)-3-(4-{3-[3-({[(2,2,2-trifluoroethyl)amino]carbonyl}amino)phenyl]imidazo[1,2-b]pyridazin-7-yl}-1H-pyrazol-1-yl)azetidine-1-carboxamide]
CC(C(=O)N1CC(O)C1)n1cc(-c2cnn3c(-c4cccc(NC(=O)NCC(F)(F)F)c4)cnc3c2)cn1 (stereo not shown) [Example 64, N-[3-(7-{1-[2-(3-Hydroxyazetidin-1-yl)-1-methyl-2-oxoethyl]-1H-pyrazol-4-yl}imidazo[1,2-b]pyridazin-3-yl)phenyl]-N′-(2,2,2-trifluoroethyl)urea]
N#CCC(=O)N1CC(CC#N)(n2cc(-c3cnn4c(-c5cccc(NC(=O)NCC(F)(F)F)c5)cnc4c3)cn2)C1 [Example 77, N-[3-(7-{1-[1-(Cyanoacetyl)-3-(cyanomethyl)azetidin-3-yl]-1H-pyrazol-4-yl}imidazo[1,2-b]pyridazin-3-yl)phenyl]-N′-(2,2,2-trifluoroethyl)urea]
N#CCC1(n2cc(-c3cnn4c(-c5cccc(NC(=O)NCC(F)(F)F)c5)cnc4c3)cn2)CN(C(=O)OCC2CC2)C1 [Example 88, Cyclopropylmethyl 3-(cyanomethyl)-3-(4-{3-[3-({[(2,2,2-trifluoroethyl)amino]carbonyl}amino)phenyl]imidazo[1,2-b]pyridazin-7-yl}-1H-pyrazol-1-yl)azetidine-1-carboxylate]
N#CCC1(n2cc(-c3cnn4c(-c5cccc(NC(=O)NCC(F)(F)F)c5)cnc4c3)cn2)CN(C(=O)CC2CC2)C1 [Example 78, N-[3-(7-{1-[3-(Cyanomethyl)-1-(cyclopropylacetyl)azetidin-3-yl]-1H-pyrazol-4-yl}imidazo[1,2-b]pyridazin-3-yl)phenyl]-N′-(2,2,2-trifluoroethyl)urea]
N#CCC1(n2cc(-c3cnn4c(-c5cccc(NC(=O)NCC(F)(F)F)c5)cnc4c3)cn2)CN(C(=O)C2CCOC2)C1 (stereo not shown) [Example 82, N-[3-(7-{1-[3-(Cyanomethyl)-1-(tetrahydrofuran-3-ylcarbonyl)azetidin-3-yl]-1H-pyrazol-4-yl}imidazo[1,2-b]pyridazin-3-yl)phenyl]-N′-(2,2,2-trifluoroethyl)urea]
N#CCC1(n2cc(-c3cnn4c(-c5cccc(NC(=O)NCC(F)(F)F)c5)cnc4c3)cn2)CN(C(=O)N2CCOCC2)C1 [Example 85, N-[3-(7-{1-[3-(Cyanomethyl)-1-(morpholin-4-ylcarbonyl)azetidin-3-yl]-1H-pyrazol-4-yl}imidazo[1,2-b]pyridazin-3-yl)phenyl]-N′-(2,2,2-trifluoroethyl)urea]
N#CCC1(n2cc(-c3cnn4c(-c5cccc(NC(=O)NCC(F)(F)F)c5)cnc4c3)cn2)CN(C(=O)CC2CCCO2)C1 (stereo not shown) [Example 81, N-[3-(7-{1-[3-(Cyanomethyl)-1-(tetrahydrofuran-2-ylacetyl)azetidin-3-yl]-1H-pyrazol-4-yl}imidazo[1,2-b]pyridazin-3-yl)phenyl]-N′-(2,2,2-trifluoroethyl)urea]
N#CCC1(n2cc(-c3cnn4c(-c5cccc(NC(=O)NCC(F)(F)F)c5)cnc4c3)cn2)CN(C(=O)C2(C#N)CC2)C1 [Example 80, N-[3-(7-{1-[1-[(1-Cyanocyclopropyl)carbonyl]-3-(cyanomethyl)azetidin-3-yl]-1H-pyrazol-4-yl}imidazo[1,2-b]pyridazin-3-yl)phenyl]-N′-(2,2,2-trifluoroethyl)urea]
CC1(C(=O)N2CC(CC#N)(n3cc(-c4cnn5c(-c6cccc(NC(=O)NCC(F)(F)F)c6)cnc5c4)cn3)C2)CC1 [Example 79, N-{3-[7-(1-{3-(Cyanomethyl)-1-[(1-methylcyclopropyl)carbonyl]azetidin-3-yl}-1H-pyrazol-4-yl)imidazo[1,2-b]pyridazin-3-yl]phenyl}-N′-(2,2,2-trifluoroethyl)urea]
